Results from patent US20100298141A1, “SUBSTITUTED PYRIDINE N-OXIDE HERBICIDES” (E. I. DU PONT DE NEMOURS AND COMPANY, priority 2007, published 2010).

What was measured:
yellow nutsedge = assay: Test C pre-/postemergence test; assay type: in vivo, Cyperus esculentus
How it was run: (§1)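 Test chemicals were formulated with surfactant in a non-phytotoxic solvent and sprayed both on freshly planted seeds (preemergence) and on 1- to 4-leaf plants of 2–18 cm (postemergence). Flooded-paddy pots received compound directly into 3 cm of standing water, maintained for the test.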

wild oat = assay: Test C pre-/postemergence test; assay type: in vivo, Avena fatua
How it was run: as §1

wheat [1] = assay: Test C pre-/postemergence test; assay type: in vivo, Triticum aestivum; settings: for Wheat plant response rating: preemergence, scale 0 (no effect) to 100 (complete control)
How it was run: as §1

corn = assay: Test C pre-/postemergence test; assay type: in vivo, Zea mays
How it was run: as §1

velvetleaf [2] = assay: Test A pre-/postemergence greenhouse test; assay type: in vivo, Abutilon theophrasti; settings: for Velvetleaf plant response rating: 0 to 100 scale
How it was run: (§2)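 Herbicidal effect is a visual injury score given about ten days post-treatment by comparison with untreated controls. Preemergence plots received a directed spray onto sown loam–sand soil; postemergence plants, at the one- to two-leaf stage and 2–10 cm tall, were sprayed at the same time.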

velvetleaf [3] = assay: Test C pre-/postemergence test; assay type: in vivo, Abutilon theophrasti; settings: for Velvetleaf plant response rating: preemergence, scale 0 (no effect) to 100 (complete control)
How it was run: as §1

redroot pigweed = assay: Test A pre-/postemergence greenhouse test; assay type: in vivo, Amaranthus retroflexus; settings: for Pigweed plant response rating: 0 to 100 scale
How it was run: as §2

morningglory = assay: Test C pre-/postemergence test; assay type: in vivo, Ipomoea coccinea
How it was run: as §1

johnsongrass = assay: Test C pre-/postemergence test; assay type: in vivo, Sorghum halepense
How it was run: as §1

catchweed bedstraw = assay: Test C pre-/postemergence test; assay type: in vivo, Galium aparine
How it was run: as §1

wheat [4] = assay: Test A pre-/postemergence greenhouse test; assay type: in vivo, Triticum aestivum; settings: for Wheat plant response rating: 0 to 100 scale
How it was run: as §2

woolly cupgrass = assay: Test C pre-/postemergence test; assay type: in vivo, Eriochloa villosa
How it was run: as §1

duck salad = assay: Test C flooded paddy test; assay type: in vivo, Heteranthera limosa; settings: Flood
How it was run: (§3)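 Flooded 3 cm over soil; compound into paddy water; depth kept constant. Greenhouse 13–15 d.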

rice = assay: Test C flooded paddy test; assay type: in vivo, Oryza sativa; settings: Flood
How it was run: as §3

downy brome = assay: Test C pre-/postemergence test; assay type: in vivo, Bromus tectorum
How it was run: as §1

giant foxtail = assay: Test C pre-/postemergence test; assay type: in vivo, Setaria faberii
How it was run: as §1

eastern black nightshade = assay: Test C pre-/postemergence test; assay type: in vivo, Solanum ptycanthum
How it was run: as §1

[5] = 31 g ai/ha, Preemergence, scale 0 to 100
[6] = 62 g ai/ha, preemergence, scale 0 (no effect) to 100 (complete control)
[7] = preemergence, 125 g ai/ha, scale 0 (no effect) to 100 (complete control)
[8] = Postemergence, 125 g ai/ha, 0 is no effect, 100 is complete control
[9] = Postemergence, 500 g ai/ha, 0 is no effect, 100 is complete control
[10] = Preemergence, 125 g ai/ha, 0 no effect, 100 complete control
[11] = Preemergence, 500 g ai/ha, 0 to 100 scale where 0 is no effect and 100 is complete control
[12] = 31 g ai/ha, scale 0 to 100 (0 no effect, 100 complete control)
[13] = 62 g ai/ha, scale 0 to 100, 0 no effect, 100 complete control, 13 to 15 days
[14] = 125 g ai/ha, scale 0 to 100, 0 no effect, 100 complete control, 13 to 15 days
[15] = 250 g ai/ha, scale 0 to 100 (0 no effect, 100 complete control)

## Cc1cc[n+]([O-])c(S(=O)(=O)C(C)c2c(C(F)(F)F)nn(C)c2OC(F)F)c1 (centres unmarked) [Compound 11]
Yellow nutsedge; [5]
  Nutsedge, Yellow plant response rating: 70
Yellow nutsedge; [6]
  Nutsedge, Yellow plant response rating: 98
Yellow nutsedge; Preemergence, 250 g ai/ha
  Plant response rating (0 to 100), Nutsedge, Yellow: 100
Yellow nutsedge; [7]
  Nutsedge, Yellow plant response rating: 100
Wild oat; [5]
  Oat, Wild plant response rating: 0
Wild oat; [6]
  Oat, Wild plant response rating: 0
Wild oat; Preemergence, 250 g ai/ha
  Plant response rating (0 to 100), Oat, Wild: 80
Wild oat; [7]
  Oat, Wild plant response rating: 20
Wheat [1]; 62 g ai/ha
  Wheat plant response rating: 20
Wheat [1]; Preemergence, 250 g ai/ha
  Plant response rating (0 to 100), Wheat: 85
Wheat [1]; 125 g ai/ha
  Wheat plant response rating: 80
corn; [5]
  Corn plant response rating: 0
corn; [6]
  Corn plant response rating: 50
corn; Preemergence, 250 g ai/ha
  Plant response rating (0 to 100), Corn: 98
corn; [7]
  Corn plant response rating: 98
Velvetleaf [2]; [8]
  Velvetleaf plant response rating: 40
Velvetleaf [2]; [9]
  Velvetleaf plant response rating: 60
Velvetleaf [2]; [10]
  Velvetleaf plant response rating: 80
Velvetleaf [2]; [11]
  Plant response rating, Velvetleaf: 90
Velvetleaf [3]; 62 g ai/ha
  Velvetleaf plant response rating: 70
Velvetleaf [3]; Preemergence, 250 g ai/ha
  Plant response rating (0 to 100), Velvetleaf: 100
Velvetleaf [3]; 125 g ai/ha
  Velvetleaf plant response rating: 100
Redroot pigweed; [8]
  Pigweed plant response rating: 10
Redroot pigweed; [9]
  Pigweed plant response rating: 60
Redroot pigweed; [10]
  Pigweed plant response rating: 100
Redroot pigweed; [11]
  Plant response rating, Pigweed: 100
morningglory; [5]
  Morningglory plant response rating: 98
morningglory; [6]
  Morningglory plant response rating: 100
morningglory; Preemergence, 250 g ai/ha
  Plant response rating (0 to 100), Morningglory: 100
morningglory; [7]
  Morningglory plant response rating: 100
johnsongrass; [5]
  Johnsongrass plant response rating: 100
johnsongrass; [6]
  Johnsongrass plant response rating: 100
johnsongrass; Preemergence, 250 g ai/ha
  Plant response rating (0 to 100), Johnsongrass: 100
johnsongrass; [7]
  Johnsongrass plant response rating: 100
Catchweed bedstraw; [5]
  Galium plant response rating: 50
Catchweed bedstraw; [6]
  Galium plant response rating: 100
Catchweed bedstraw; Preemergence, 250 g ai/ha
  Plant response rating (0 to 100), Galium: 100
Catchweed bedstraw; [7]
  Galium plant response rating: 100
Wheat [4]; [8]
  Wheat plant response rating: 50
Wheat [4]; [9]
  Wheat plant response rating: 60
Wheat [4]; [10]
  Wheat plant response rating: 50
Wheat [4]; [11]
  Plant response rating, Wheat: 80
Woolly cupgrass; [5]
  Cupgrass, Woolly plant response rating: 60
Woolly cupgrass; [6]
  Cupgrass, Woolly plant response rating: 80
Woolly cupgrass; Preemergence, 250 g ai/ha
  Plant response rating (0 to 100), Cupgrass, Woolly: 100
Woolly cupgrass; [7]
  Cupgrass, Woolly plant response rating: 85
Duck salad; [12]
  Plant response rating, Ducksalad: 0
Duck salad; [13]
  Plant response rating, Ducksalad: 65
Duck salad; [14]
  Plant response rating, Ducksalad: 85
Duck salad; [15]
  Plant response rating, Ducksalad: 90
rice; [12]
  Plant response rating, Rice: 0
rice; [13]
  Plant response rating, Rice: 70
rice; [14]
  Plant response rating, Rice: 80
rice; [15]
  Plant response rating, Rice: 80
Downy brome; [5]
  Bromegrass, Downy plant response rating: 0
Downy brome; [6]
  Bromegrass, Downy plant response rating: 10
Downy brome; Preemergence, 250 g ai/ha
  Plant response rating (0 to 100), Bromegrass, Downy: 60
Downy brome; [7]
  Bromegrass, Downy plant response rating: 50
Giant foxtail; [5]
  Foxtail, Giant plant response rating: 80
Giant foxtail; [6]
  Foxtail, Giant plant response rating: 98
Giant foxtail; Preemergence, 250 g ai/ha
  Plant response rating (0 to 100), Foxtail, Giant: 100
Eastern black nightshade; [5]
  Nightshade plant response rating: 95
Eastern black nightshade; [6]
  Nightshade plant response rating: 100
Eastern black nightshade; Preemergence, 250 g ai/ha
  Plant response rating (0 to 100), Nightshade: 100
Eastern black nightshade; [7]
  Nightshade plant response rating: 100
